Here are results for two molecules from patent publication US6861445B2, “3-Substituted-3-(substitutedsulfonyl or sulfanyl)pyrrolidine-2,5-diones useful for inhibition of farnesyl-protein transferase” (Wyeth Holdings Corporation, priority 2001, dated 2005).

The target in one data set is FPTase (H-Ras substrate) (Homo sapiens, UniProt P49354+P49356). Put plainly: in vitro FTase Inhibition Assay, H-Ras as substrate for farnesylation. Format: biochemical. Conditions: H-Ras used as substrate for farnesylation. Here is the method:
(§1) The ability of the compounds of this invention to inhibit FPTase was evaluated in the standard pharmacological in vitro test procedures described below.
(§2) Enzyme test procedure: FPTase inhibition in vitro assay was performed according to James, G. L., Brown, M. S., and Goldstein, J. L., Methods in Enzymology, 1995, 255, 38-46; and Garcia, M. A., et al., J. Biol. Chem., 1993, 268, 18415-18420.
(§3) • Materials—Purified FPTase (Moomaw, J. F. and Casey, P. J., J. Biol. Chem., 1992, 267, 17438-17443), purified His6-Ras, inhibitor compounds at 10 mg/ml or 10 mM in 100% DMSO, ^3H-FPP (50,000 dpm/pmol) Amersham, TCA/SDS (6%/2%), TCA (6%), Glass fiber filters (0.22-0.45 m), vacuum manifold or 96 well filtration plates. • Methods—1. Dilute FPTase inhibitors from stock solutions to 2.5× in 2.5% DMSO, 10 mM DTT, 0.5% octyl-B-glucoside. 2. Solution #1 is added to FPTase reaction in a volume of […]. 3. Standard reaction mix, […], contains 50 mM Tris (7.5),[…], 3 mM MgCl2, 20 mM KCl, 5 mM DTT, 0.2% octyl-B-glucoside, 1% DMSO, […] His6-Ras, 10 ng FPTase, and various concentrations of FPTase inhibitors. 4. Incubate for 30-90 min at 25° C. 5. […] Add scintillant to filters, measure ^3H-FPP incorporation into Ras protein. • Analysis of Results—Percent inhibition by test compounds is determined by the following: […]. […]

A further data set concerns the target FPTase (K-Ras substrate) (Homo sapiens, UniProt P49354+P49356). Put plainly: in vitro FTase Inhibition Assay, K-Ras as substrate for farnesylation. Format: biochemical. The conditions noted are these: K-Ras used as substrate for farnesylation. Here is the method:
as §1, §2, §3

The molecule `Cc1ccc(S(=O)(=O)C2(CC#Cc3ccc(Cl)cc3)CC(=O)NC2=O)cc1` (stereo not shown) [3-[-3-(4-Chlorophenyl)prop-2-ynyl]-3-(toluene-4-sulfonyl)pyrrolidine-2,5-dione] yielded an IC50 at FPTase (H-Ras substrate) of 6500 nM.

In turn, `COc1ccc(S(=O)(=O)C2(CCCC#Cc3ccc(Cl)cc3)CC(=O)NC2=O)cc1` (stereo not shown) [3-[5-(4-Chlorophenyl)pent-4-ynyl]-3-(4-methoxybenzenesulfonyl)-pyrrolidine-2,5-dione] registered a melting point of 160 to 162 °C. Moreover, the IC50 at FPTase (K-Ras substrate) is greater than 1000 nM. Further, 140 nM corresponded to half-maximal inhibition against FPTase (H-Ras substrate) (IC50).
